Assays:
Test in all cases: area under dose-response curve of surviving fraction (unscaled, Aref=0) (surviving fraction x log10(nM)); higher = more resistant
Details in all cases: exposure time: 5 days; dose range 0.5-1000 nM
[1] = compound: CCn1c(C(=O)N(C2CC2)C2CC2)cc2c3c(ncn3C)c(Nc3cc(C)n(C)n3)nc21
In short: (§1)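 Inhibitor was applied to tumour cell lines at eight concentrations (0.5 to 1000 nM) for five days in 384-well plates. Luminescence from CellTiter-Glo, scaled to DMSO-only wells, gave surviving fractions in three screens per line, and these were fitted by 3-parameter logistic regression with the drc R package. The area under the curve is an unscaled activity area. Aref was 0, and dose was on a log10 scale.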

SOTRASTAURIN/AEB071 = compound: CN1CCN(c2nc(C3=C(c4c[nH]c5ccccc45)C(=O)NC3=O)c3ccccc3n2)CC1 [SOTRASTAURIN/AEB071]
In short: as §1

SORAFENIB = compound: CNC(=O)c1cc(Oc2ccc(NC(=O)Nc3ccc(Cl)c(C(F)(F)F)c3)cc2)ccn1 [SORAFENIB]
In short: as §1

[2] = compound: CNCc1ccc(-c2[nH]c3cc(F)cc4c3c2CCNC4=O)cc1
In short: as §1

FORETINIB = compound: COc1cc2c(Oc3ccc(NC(=O)C4(C(=O)Nc5ccc(F)cc5)CC4)cc3F)ccnc2cc1OCCCN1CCOCC1 [FORETINIB]
In short: as §1

[3] = compound: COc1cc2ncnc(Nc3ccc(F)c(Cl)c3)c2cc1NC(=O)/C=C/CN1CCCCC1
In short: as §1

CRIZOTINIB = compound: C[C@@H](Oc1cc(-c2cnn(C3CCNCC3)c2)cnc1N)c1c(Cl)ccc(F)c1Cl [CRIZOTINIB]
In short: as §1

[4] = compound: C[C@@H](Oc1cc(-c2cnn(C3CCNCC3)c2)cnc1N)c1c(Cl)ccc(F)c1Cl
In short: as §1

ABIRATERONE = compound: C[C@]12CC[C@H](O)CC1=CC[C@@H]1[C@@H]2CC[C@]2(C)C(c3cccnc3)=CC[C@@H]12 [ABIRATERONE]
In short: as §1

DASATINIB = compound: Cc1nc(Nc2ncc(C(=O)Nc3c(C)cccc3Cl)s2)cc(N2CCN(CCO)CC2)n1 [DASATINIB]
In short: as §1

TEMOZOLOMIDE = compound: Cn1nnc2c(C(N)=O)ncn2c1=O [TEMOZOLOMIDE]
In short: as §1

MLN-4924 = compound: NS(=O)(=O)OC[C@@H]1C[C@@H](n2ccc3c(N[C@H]4CCc5ccccc54)ncnc32)C[C@@H]1O [MLN-4924]
In short: as §1

OLAPARIB = compound: O=C(c1cc(Cc2n[nH]c(=O)c3ccccc23)ccc1F)N1CCN(C(=O)C2CC2)CC1 [OLAPARIB]
In short: as §1

XAV-939 = compound: Oc1nc(-c2ccc(C(F)(F)F)cc2)nc2c1CSCC2 [XAV-939]
In short: as §1

| Test System | area under dose-response curve [1] | area under dose-response curve (SOTRASTAURIN/AEB071) | area under dose-response curve (SORAFENIB) | area under dose-response curve [2] | area under dose-response curve (FORETINIB) | area under dose-response curve [3] | area under dose-response curve (CRIZOTINIB) | area under dose-response curve [4] | area under dose-response curve (ABIRATERONE) | area under dose-response curve (DASATINIB) | area under dose-response curve (TEMOZOLOMIDE) | area under dose-response curve (MLN-4924) | area under dose-response curve (OLAPARIB) | area under dose-response curve (XAV-939) |
| --- | --- | --- | --- | --- | --- | --- | --- | --- | --- | --- | --- | --- | --- | --- |
| MDAMB436 BREAST | 2.67 | 2.8 | 3.22 | 2.37 | 3.16 | 3.06 | 3.4 | 2.84 | 3.11 | 2.65 | 3.32 | 2.24 | 2.31 | 3.05 |
| OS25HAL BONE | 3.23 | 3.43 | 3.2 | – | 2.85 | 3.34 | 3.21 | 3.14 | 3.44 | 2.28 | 3.52 | 2.39 | 3.36 | 3.23 |
| A549 LUNG | 3.2 | – | 3.44 | 3.56 | 3.13 | 3.32 | 3.27 | 3.25 | 3.53 | 2.72 | 3.43 | 3.14 | 3.48 | 3.48 |
| VCAP PROSTATE | 3.54 | 3.27 | 3.73 | 3.23 | 3.06 | 3.12 | 3.04 | 2.88 | 3.72 | 3.15 | 3.44 | 2.21 | 3.59 | 3.13 |
| HELA CERVIX | 3.32 | 3.56 | 3.38 | 3.62 | 3.06 | 3.73 | 3.42 | 3.13 | 3.73 | 3.16 | 3.6 | 3.35 | 3.66 | 3.57 |
| SYO1 SYNOVIAL | 3.06 | 3.01 | 3.06 | 2.25 | 2.43 | 3.02 | 2.71 | 2.44 | 3.32 | 1.7 | 3.18 | 2.1 | 2.48 | 3.01 |
| OSHN BONE | 3.38 | 3.32 | 3.51 | 3.21 | 3.09 | 3.52 | 3.28 | 3.17 | 3.67 | 2.81 | 3.58 | 2.48 | 3.28 | 3.53 |
| HCC78 LUNG | 2.67 | 3.62 | 3.05 | 3.18 | 1.78 | 2.51 | 2.26 | 2.08 | 3.32 | 1.88 | 2.97 | 1.64 | 3.38 | 2.69 |
| HOS BONE | 3.32 | 3.38 | 3.42 | 3.35 | 3.06 | 3.27 | 3.13 | 3.05 | 3.5 | 2.29 | 3.42 | 2.11 | 3.37 | 3.4 |
| CAL51 BREAST | 3.3 | 3.16 | 3.36 | 2.78 | 2.75 | 3.29 | 2.87 | 2.77 | 3.32 | 1.95 | 3.41 | 2.56 | 2.99 | 3.24 |
| MDAMB157 BREAST | 2.94 | 3.23 | – | 3.13 | 2.94 | 3.08 | 3.17 | 2.84 | 3.17 | 1.89 | 3.27 | 2.69 | 3.21 | 3.08 |
| SG43 HEADNECK | 2.97 | 3.54 | 4.26 | 3.46 | 2.45 | 1.38 | 2.8 | 2.88 | 3.37 | 1.64 | 2.97 | – | 3.28 | 2.88 |
| MDAMB231 BREAST | 3.25 | 3.34 | 3.13 | 3.03 | 2.91 | 3.08 | 2.93 | 2.81 | 3.29 | 1.44 | 3.27 | 2.4 | 3.09 | 2.95 |
| CASKI CERVIX | 3.21 | 3.1 | – | 3.04 | 2.87 | 1.19 | 2.83 | 2.58 | – | 1.2 | 3.19 | 2.18 | 2.98 | 3.25 |
| MHM BONE | 3.28 | 3.52 | 3.47 | 3.49 | 3.2 | 3.28 | 3.27 | 3.21 | 3.43 | 2.44 | 3.31 | – | 3.42 | 3.28 |
| LNCAP PROSTATE | 2.93 | 3.71 | – | – | 2.93 | 2.92 | 2.91 | 2.82 | 2.98 | 2.62 | 3.08 | 1.35 | 3.27 | 2.79 |
| SNU475 LIVER | 3.18 | 3.15 | 3.6 | 3.13 | 3.18 | 2.94 | 3.26 | 2.77 | 3.42 | 1.64 | 3.4 | 3.13 | 3.11 | 3.07 |
| COLO320DM LARGE INTESTINE | 3.77 | 3.45 | 3.67 | 3.27 | 3.16 | 3.2 | 3.21 | 3.01 | 3.36 | 3.52 | 3.45 | 3.14 | 3.46 | 3.19 |

| Test System | area under dose-response curve [1] | area under dose-response curve (SOTRASTAURIN/AEB071) | area under dose-response curve (SORAFENIB) | area under dose-response curve [2] | area under dose-response curve (FORETINIB) | area under dose-response curve [3] | area under dose-response curve (CRIZOTINIB) | area under dose-response curve [4] | area under dose-response curve (ABIRATERONE) | area under dose-response curve (DASATINIB) | area under dose-response curve (TEMOZOLOMIDE) | area under dose-response curve (MLN-4924) | area under dose-response curve (OLAPARIB) | area under dose-response curve (XAV-939) |
| --- | --- | --- | --- | --- | --- | --- | --- | --- | --- | --- | --- | --- | --- | --- |
| LM7 BONE | 3.31 | 3.08 | 3.39 | 2.67 | 3.1 | 2.98 | 3.05 | 2.6 | 3.33 | 1.58 | 3.38 | 2.09 | 2.84 | 3.45 |
| CAL120 BREAST | 3.06 | 3.28 | 3.19 | 3.19 | 3.06 | 3.14 | 3.24 | 2.89 | 3.35 | 1.98 | 3.22 | 2.22 | 2.89 | 3.24 |
| KPD BONE | 3.28 | 3.41 | 3.2 | 3.18 | 3.08 | 3.13 | 3.08 | 2.95 | 3.4 | 2.1 | 3.35 | 2.61 | 3.12 | 3.17 |
| H23 LUNG | 3.2 | 3.58 | 3.89 | 3.63 | 3.19 | 1.51 | 3.48 | 3.24 | 3.65 | 2.14 | 3.33 | 2.48 | 3.67 | 2.94 |
| SUM149 BREAST | 3.48 | 2.96 | 3.9 | 2.39 | 2.82 | 2.13 | 3.15 | 2.99 | 3.16 | 1.49 | 3.57 | 2.38 | 2.46 | 2.66 |
| MFM223 BREAST | 3.58 | 2.95 | 3.79 | 2.94 | 3.08 | 3.27 | 3.69 | 2.92 | 3.88 | 2.52 | 4.05 | 2.82 | 2.99 | 3.24 |
| HSSYII SYNOVIAL | 3.02 | 2.99 | 3.17 | 2.44 | 2.59 | 3 | 2.85 | 2.49 | 3.22 | 2.17 | 3.23 | 1.85 | 2.67 | 3.04 |
| JIMT1 BREAST | 3.27 | 3.24 | 3.34 | 3.03 | 3.01 | 2.5 | 3.18 | 3.01 | 3.3 | 1.66 | 3.4 | 3.19 | 3.01 | 3.26 |
| 22RV1 PROSTATE | 3.4 | 3.61 | 3.42 | 3.57 | 3.05 | – | 3.17 | 3 | 3.62 | – | 3.54 | 2.3 | 3.41 | 3.34 |
| T47D BREAST | 3.36 | 3.44 | 3.6 | 3.24 | 3.43 | 3.49 | 3.51 | 3.15 | 3.62 | 3.08 | 3.49 | 2.34 | 3.11 | 3.54 |
| S68 BREAST | – | 3.45 | 3.49 | 2.67 | 2.65 | 2.49 | 2.72 | 2.76 | 3.31 | 1.44 | 3.53 | 2.21 | 2.85 | 3.19 |
| MCF7 BREAST | 2.83 | 3.11 | 2.97 | 3.04 | 2.96 | 3.16 | 3.04 | 2.71 | 3.3 | 2.56 | 3.08 | 2.24 | 3.07 | 3.19 |
| HOSMNG BONE | 3.39 | 3.24 | – | 3.01 | 2.05 | 3.18 | 2.38 | 2.33 | 3.41 | 2.21 | 3 | 3.01 | 3.29 | 3.14 |
| U2OS BONE | 3.44 | 3.36 | 3.5 | 3.17 | 3 | 3.24 | 3.06 | 2.88 | 3.6 | 2.63 | 3.39 | 2.83 | 3.26 | 3.25 |
| CADOES1 SOFT TISSUE | 3.08 | 3.21 | 2.92 | 2.97 | 2.56 | 3 | 3.05 | 2.94 | – | 3.34 | 3.11 | 2.57 | 3.04 | 2.98 |
| HT1080 SOFT TISSUE | 3.3 | 3.53 | 3.4 | 3.02 | 3.13 | 3.22 | 3.28 | 3.25 | 3.37 | 2.37 | 3.41 | 2.52 | 2.92 | 2.94 |
| MDAMB361 BREAST | 2.83 | 2.21 | 2.79 | 2.1 | 2.98 | 2.58 | 2.86 | 2.88 | – | 2.45 | 3.06 | 2.48 | 2.26 | 3.04 |

Reference: the supplement of paper PMC6045584
